Source: patent US20250127790A1, “COMBINATION THERAPY USING VPS34 INHIBITORS” (Deciphera Pharmaceuticals, LLC, priority 2021, published 2025)

Key:
[1] = tested on: THP-1 dual reporter cells; test: THP-1 dual reporter assay (ISRE and NF-κB promoter activity); assay type: cell-based, human; details: 5 μg/mL ADU-S100, 2 μM Compound 1 or 2, overnight
Experimental: THP1-Dual™ Cells lines were purchased from InvivoGen (WT (thpd-nfis) and STING-KO (thpd-kostg)) and cultured as recommended by manufacturer: in RPMI media (Gibco 22400-071) supplemented with 10% heat-inactivated Fetal Bovine Serum (FBS) (Gibco A38400-02) and 1× Pen-Strep-Glutamine (Gibco 10378-016). Cells were treated with selective antibiotic every other passage using 100 μg/ml Normocin™ (InvivoGen ant-nr-1), 10 μg/ml of blasticidin (InvivoGen ant-bl-05) and 100 μg/ml of Zeocin™ (InvivoGen ant-zn-05). THP1-Dual™ Cells (wild-type or STING-KO) were seeded at 1.5×10^5 cells/well in 96-well plates. Cells were treated with DMSO, 5 μg/mL ADU-S100, 2 μM Compound 1 or 2 or the combinations overnight. The next day, 10 μL of the media from the treated cells were mixed with 50 μL of QUANTI-Luc™ Gold (Invivogen rep-qlcg2) in a white 96-well plate (Thermo Scientific 9502887) to measure the interferon-sensitive response element (ISRE) promoter activity through Luciferase signal using a plate reader. For measuring NF-κB promoter activity, 10 μL of the media from the treated cells were mixed with 90 μL of QUANTI-Blue™ (Invivogen rep-qbs3) in white-96-well plates (Corning-Costar 3610), then incubated at 37° C. for one hour. The signal was then measured using a plate reader with detection at 640 nm wavelength.

[2] = tested on: THP-1 dual reporter cells; test: Cytokine secretion in wild-type and STING knockout THP-1 dual reporter cells; assay type: cell-based, human; details: wild-type THP-1 dual reporter cells
B16-F10 tumors = test: In vivo study of B16-F10 tumors; design: species or system C57BI/6 mice
Experimental: B16-F10 tumor-bearing C57BI/6 mice were treated with vehicle or 20 mg/kg Compound 1 p.o. (daily from day 7-16) in combination with PBS or 10 μg ADU-S100 i.t. (on days 9, 11, 13, and 15).

A-498 cells = test: Western blot, STAT1 phosphorylation in A-498 cells; assay type: cell-based, human
Experimental: A-498 cells were seeded at 1.5×10^5 cells/well in 6-well plates and cultured overnight. Cells were treated with 10 μg/mL mouse monoclonal antibody to human interferon α/β receptor chain 2 (α-IFNAR2) (clone: MMHAR-2, #21385-1, PBL Assay Science) or 10 μg/mL mouse IgG2a isotype control antibody (clone: eBM2a, #16-4724-81, Thermo Fisher Scientific). After 1 h, DMSO or 2 μM Compound 1 was added and cells were incubated for another 24 h. […] A-498 cells were washed in PBS and lysed in RIPA buffer (50 mM Tris HCl pH=7.4, 150 mM NaCl, 1% Triton X-100, 0.5% Na-deoxycholate, 0.1% SDS) containing protease inhibitor cocktail (#11836170001, Roche), and phosphatase inhibitor (#11836170001, Roche) for 10 min at 4° C. After centrifugation at 15000 rpm for 10 min at 4° C., the supernatant was obtained, and protein concentration was quantified using BCA assay (#23225, Thermo Fisher). Equal amounts were mixed with 0.1 M DTT and LDS Sample Buffer (#84788, Thermo Fisher), heated for 5 min at 90° C. before loading onto 4-12% Bis-Tris gels. Proteins were transferred to nitrocellulose membranes. Membranes were blocked in 5% non-fat dry milk in TBS with 0.05% Tween (TBS-T) for 1 h at RT, washed in TBS-T, and probed with primary antibodies shaking overnight at 4° C. After washing in TBS-T, membranes were incubated with IRDye 800CW goat anti-rabbit or IRDye 680RD donkey anti-mouse IgG (H+L) (#926-32211 and #926-68072, respectively, LI-COR, 1:10,000 dilution) secondary antibody in Intercept blocking buffer (#927-60001, LI-COR) for 1 h at RT. After washing in TBS-T, membranes were imaged using the Odyssey CLx (LI-COR). Band intensities were quantified using Image Studio Lite software version 5.2.5 (LI-COR).

Structure (SMILES) | ISRE activity (QUANTI-Luc) [1] | NFκB activity (QUANTI-Blue) [1] | secretion of CCL5 [2] | secretion of CXCL10 [2] | secretion of IFNβ [2] | sensitization of B16-F10 tumors to STING agonist treatment (tumor growth, survival) (B16-F10 tumors; C57BI/6 mice, 20 mg/kg Compound 1 p.o. daily day 7-16 with 10 μg ADU-S100 i.t. on days 9, 11, 13, 15) | mice survival (B16-F10 tumors; Renca and B16-F10 tumor-bearing mice, Compound 1 with STING agonist treatment) | phosphorylation of STAT1 (A-498 cells; 2 μM Compound 1, 24 h) | total levels of STAT1 (A-498 cells; 2 μM Compound 1, 24 h) | phosphorylation of STAT1 with addition of α-IFNAR2 (A-498 cells; 10 μg/mL α-IFNAR2 antibody 1 h before 2 μM Compound 1, 24 h)
Nc1ncnc2c1ncn2[C@@H]1O[C@@H]2COP(=O)([S-])O[C@@H]3[C@H](O)[C@@H](COP([O-])(=S)O[C@H]2[C@H]1O)O[C@H]3n1cnc2c(N)ncnc21.[Na+].[Na+] (stereo partly shown) [ADU-S100, reference compound] | stimulates | stimulates | stimulates | stimulates | stimulates |  |  |  |  | 
C[C@@H]1COCCN1c1cc(N2CCCC[C@@H]2C(F)(F)F)[nH]c(=O)c1 [Compound 1, 4-((R)-3-methylmorpholino)-6-((R)-2-(trifluoromethyl)piperidin-1-yl)pyridin-2(1H)-one] |  |  |  |  |  | sensitized | significantly improved | increased | did not alter | inhibited
